Holding throughout (test): growth of human tumour cells (NCI), 48 h
The subject of assay [1] is A498 renal.
The subject of assay [2] is ACHN renal.
In assay [3] the test system is COLO 205 colon.
For assay [4], the system named is HOP-62 NSCLC.
Assay [5] concerns LOX IMVI melanoma.
Assay [6] relates to OVCAR-5 ovarian.
The test system of assay [7] is SF-295 CNS.
Assay [8] deals with SK-MEL-2 melanoma.
Assay [9] deals with SK-OV-3 ovarian.
The test system of assay [10] is SN12C renal.

Structures are written as SMILES. Several values for one entry are separate records, joined by “and”; a condition that tells them apart may be missing. Equal entries are not always repeated.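 Test compounds were applied to cells in 96-well plates for 48 hours at 5 doses. At the GI50, growth is halved. TGI: concentration producing complete growth inhibition.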 Where only a bound is given, the exact number is not on record here.

With `CCCC(CCC)C(=O)OCC1(CO)C/C(=C\c2ccc(C(F)(F)F)cc2)C(=O)O1` (configuration not stated), the GI50 in assay [1] is 0.105 µM; in assay [2], 10.5 µM; in [3], 0.577 µM; in assay [4], 2.34 µM; in assay [5] it was 10 µM; in assay [6], 17.1 µM. For the same compound, the GI50 is 2.44 µM in [7], 18.6 µM in [8], 19.7 µM in [9] and 11.9 µM in assay [10]. The TGI in assay [1] is 10.3 µM; in assay [2], 22.6 µM; in [3], 9.37 µM; in assay [4] it was 15.1 µM; in [5] it was 22.8 µM; in [6], 31.7 µM. The TGI in assay [7] was 17.7 µM; in [8] it was 36 µM; in [9] it was 34 µM; in assay [10] it was 25.7 µM.
As to `CN(C)N=Nc1nn(C(=O)Nc2ccc(Cc3ccccc3)cc2)c2ccccc12`, the GI50 in assay [1] is more than 58.9 µM; in [2], 0.282 µM; in assay [3], 0.77 µM; in [4] it was more than 100 µM; in assay [5], 0.0625 µM; in assay [6], more than 21.6 µM. Further, the GI50 in assay [7] is 0.225 µM; in assay [8] it was 2.07 µM; in assay [9], more than 100 µM; in assay [10], more than 100 µM. For the same compound, the TGI in assay [1] is more than 100 µM; in [2] it was more than 100 µM; in assay [3] it was 2.45 µM; in [4], more than 100 µM; in assay [5] it was more than 73.3 µM; in assay [6], more than 100 µM. Also, the TGI in assay [7] is 3.12 µM; in assay [8] it was more than 100 µM; in assay [9], more than 100 µM; in assay [10], more than 100 µM.
On to `O=C(Cn1c2ccccc2c2ccncc21)N/N=C\c1ccc2ccccc2c1`, for which the GI50 was 27.5 µM in assay [1]; 19.3 µM in [2]; 25.8 µM in [3]; 17.3 µM in [4]; 28.6 µM in [5]; 36.5 µM in assay [6]. Besides, the GI50 in assay [7] is 14.8 µM; in [8] it was 19.2 µM; in assay [9], 18.2 µM; in assay [10], 14.7 µM. Further, the TGI in assay [1] is 80.8 µM; in assay [2] it was 48.5 µM; in [3], more than 100 µM; in assay [4], 39.3 µM; in [5] it was more than 100 µM; in assay [6], more than 100 µM. In addition, the TGI was 34.6 µM in assay [7], 42 µM in assay [8], 39.4 µM in assay [9] and 46.6 µM in assay [10].
With `CCN(CC)CCC(=O)O[C@H]1CC[C@H](CC(C)[C@H]2CC(=O)C(C)C=C(C)[C@H](OC(=O)CCN(CC)CC)C(OC)C(=O)[C@@H](C)CC(C)/C=C/C=C/C=C(C)C(OC)CC3CC[C@H](C)[C@](O)(O3)C(=O)C(=O)N3CCCCC3C(=O)O2)CC1OC` (some centres not stated), the TGI in assay [1] is 1.11 µM; in [2], 2.62 µM and 4.48 µM; in assay [3], 2.8 µM and 2.49 µM; in assay [4] it was 1.73 µM and 2.75 µM; in [5], 1.94 µM and 1.65 µM; in [6] it was 8.16 µM and 7.73 µM. Also, the TGI is 1.46 µM and 1.98 µM in [7]; 1.91 µM in assay [8]; 5.53 µM in assay [9]; 4.28 µM and 2.17 µM in assay [10]. Besides, the GI50 was 1.04 µM in assay [3]; 0.00257 µM and 0.00547 µM in assay [4]; 0.00795 µM in assay [5]; 1.63 µM in [6]; 0.0016 µM in assay [7]; 0.359 µM in [8]. The GI50 in assay [10] is 1.42 µM.
Take `O=C1C=C(OCCCl)C(=O)c2c(O)ccc(O)c21`: the GI50 in [1] was 2.38 µM; in [2], 1.89 µM; in [3], 0.592 µM; in assay [4], 1.97 µM; in assay [5], 0.465 µM; in assay [6] it was 2.01 µM. Also, the GI50 in [7] was 2.44 µM; in [8], 2.1 µM; in [9], 25.2 µM; in [10] it was 1.58 µM. Moreover, the TGI in [1] is 2.55 µM and 4.25 µM; in assay [2], 2.89 µM and 4.95 µM; in assay [3], 0.338 µM and 1.92 µM; in assay [4], 1.52 µM and 3.39 µM; in [5] it was 0.392 µM and 1.83 µM; in assay [6], 2.98 µM and 3.56 µM. Moreover, the TGI was 3 µM and 4.53 µM in assay [7]; 1.4 µM and 4.39 µM in assay [8]; 0.526 µM and 3.03 µM in assay [10].
For `COc1ccc(/C=N\O[Si](C)(C)C(C)(C)C)cc1O[Si](C)(C)C(C)(C)C`, the TGI in assay [1] was found to be 33.2 µM; in assay [2], 33.3 µM; in assay [3], 52.2 µM; in assay [4], 36 µM; in assay [5], 36.5 µM; in [6] it was 39 µM. Besides, the TGI was 30.9 µM in assay [7], 31.5 µM in assay [8], 46.5 µM in assay [9] and 35.1 µM in assay [10].
As to `O=c1[nH]nc(-c2ccccc2)c2c(-c3ccccc3)onc12`, the GI50 in [1] was 0.287 µM; in assay [2], 3.38 µM; in assay [3], 0.505 µM; in [5], 0.877 µM; in assay [6], more than 62.8 µM; in assay [7], 0.72 µM. Also, the GI50 was 0.981 µM in assay [9] and 0.748 µM in [10]. Besides, the TGI is 3.69 µM in [1]; more than 100 µM in [2]; 9.89 µM in assay [3]; more than 100 µM in [4]; more than 100 µM in [5]; more than 100 µM in assay [6]. Moreover, the TGI in assay [7] is more than 100 µM; in assay [8] it was more than 100 µM; in [9], 53.6 µM; in assay [10], more than 100 µM.
With `O=C1NC(c2ccccc2)N=C2Oc3ccccc3C=C12` (configuration not stated), the TGI in [1] was more than 81.8 µM; in assay [2], more than 100 µM; in assay [4], more than 66.7 µM; in assay [5], more than 31.6 µM; in assay [6], more than 100 µM; in [7], more than 100 µM. Also, the TGI in [8], in assay [9] and in assay [10] was more than 100 µM each time.
As to `O=C1NN=CN2C(=O)CCC12` (configuration not stated), the TGI in assay [1], in assay [2], in [3], in [4], in assay [5] and in [7] was more than 100 µM each time. For the same compound, the TGI in assay [8], in assay [9] and in assay [10] was more than 100 µM each time.
